Measurements taken from PubChem BioAssay (NCI).
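Assay format: 96-well plates, 48-hour exposure. TGI: concentration producing complete growth inhibition.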

Assays:
Assay in all cases: inhibition of tumour cell growth, NCI panel, 48 h
SK-MEL-28 melanoma = system: SK-MEL-28 melanoma
SR leukemia = system: SR leukemia
MDA-N = system: MDA-N
HT29 colon = system: HT29 colon
RXF 393 renal = system: RXF 393 renal
K-562 leukemia = system: K-562 leukemia
M14 melanoma = system: M14 melanoma
NCI/ADR-RES ovarian = system: NCI/ADR-RES ovarian
U251 CNS = system: U251 CNS
ACHN renal = system: ACHN renal
LOX IMVI melanoma = system: LOX IMVI melanoma
OVCAR-5 ovarian = system: OVCAR-5 ovarian
CAKI-1 renal = system: CAKI-1 renal
CCRF-CEM leukemia = system: CCRF-CEM leukemia
A549 NSCLC = system: A549 NSCLC
SF-268 CNS = system: SF-268 CNS
UACC-62 melanoma = system: UACC-62 melanoma

| SMILES | TGI (SK-MEL-28 melanoma) | TGI (SR leukemia) | TGI (MDA-N) | TGI (HT29 colon) | TGI (RXF 393 renal) | TGI (K-562 leukemia) | TGI (M14 melanoma) | TGI (NCI/ADR-RES ovarian) | TGI (U251 CNS) | TGI (ACHN renal) | TGI (LOX IMVI melanoma) | TGI (OVCAR-5 ovarian) | TGI (CAKI-1 renal) | TGI (CCRF-CEM leukemia) | TGI (A549 NSCLC) | TGI (SF-268 CNS) | TGI (UACC-62 melanoma) |
| --- | --- | --- | --- | --- | --- | --- | --- | --- | --- | --- | --- | --- | --- | --- | --- | --- | --- |
| O=C(Nc1ccc(C(F)(F)F)cc1)NC(F)(F)F | > 100 µM | > 100 µM | > 100 µM | > 100 µM | > 100 µM | > 100 µM | > 100 µM | > 100 µM | > 100 µM | > 100 µM | > 100 µM | > 100 µM | > 100 µM | > 100 µM | > 100 µM | > 100 µM | – |
| CCOC(=O)c1nc2cc(C(F)(F)F)ccc2nc1Oc1ccc(C#N)cc1 | > 100 µM | > 100 µM | > 100 µM | – | > 100 µM | > 100 µM | > 100 µM | > 100 µM | > 100 µM | > 100 µM | > 100 µM | > 100 µM | > 100 µM | > 100 µM | > 100 µM | > 100 µM | > 100 µM |
| CC(C)CC(NC(=O)C(C)(CI)Cc1ccccc1)C(=O)Nc1ccccc1 (centres undefined) | – | > 100 µM | > 100 µM | – | > 100 µM | > 100 µM | > 100 µM | > 100 µM | > 100 µM | > 100 µM | > 100 µM | > 100 µM | > 100 µM | > 100 µM | > 100 µM | – | > 100 µM |
| COc1ccc(S(=O)(=O)N2C(=O)CCC2C(=O)NC(N)=O)cc1 (centres undefined) | > 100 µM | > 100 µM | > 100 µM | > 100 µM | – | > 100 µM | > 100 µM | > 100 µM | > 100 µM | > 100 µM | > 100 µM | > 100 µM | > 100 µM | > 100 µM | > 100 µM | – | > 100 µM |
| O=C1/C(=C\c2ccc(Cl)cc2)N=C(c2ccccc2)N1n1c(=O)cn[nH]c1=S | > 100 µM | 72.6 µM | > 100 µM | > 100 µM | – | 54.9 µM | > 100 µM | > 100 µM | 37.7 µM | > 100 µM | 65.3 µM | > 100 µM | > 100 µM | 15.7 µM | > 100 µM | – | > 100 µM |
| Cc1ccc(CC(Cc2ccccc2C)C(=O)O)c(C(=O)O)c1 (centres undefined) | > 100 µM | > 100 µM | > 100 µM | > 100 µM | > 100 µM | > 100 µM | > 100 µM | > 100 µM | > 100 µM | > 100 µM | > 100 µM | > 100 µM | > 100 µM | > 100 µM | > 100 µM | > 100 µM | – |
| N#CC12C(=O)N3C(=NC(c4ccco4)NC3c3ccco3)C1(C#N)C(c1ccco1)NC1=C2CCCC1 (centres undefined) | > 100 µM | > 100 µM | > 100 µM | > 100 µM | > 100 µM | > 100 µM | > 100 µM | > 100 µM | > 100 µM | > 100 µM | > 100 µM | > 100 µM | > 100 µM | – | > 100 µM | > 100 µM | > 100 µM |
| CCOc1cc(C2CC(c3ccc(NS(=O)(=O)c4cc([N+](=O)[O-])ccc4C)cc3)=NN2S(=O)(=O)c2cc([N+](=O)[O-])ccc2C)ccc1O (centres undefined) | > 100 µM | > 100 µM | > 100 µM | > 100 µM | 70.7 µM | > 100 µM | > 100 µM | > 100 µM | > 100 µM | > 100 µM | > 100 µM | > 100 µM | > 100 µM | > 100 µM | > 100 µM | > 100 µM | – |
| O=c1c2cc(-c3ccccc3)cnc2sn1-c1ccc(Br)cc1 | > 100 µM | > 100 µM | > 100 µM | > 100 µM | > 100 µM | > 100 µM | > 100 µM | > 100 µM | > 100 µM | > 100 µM | – | > 100 µM | > 100 µM | > 100 µM | > 100 µM | > 100 µM | > 100 µM |
| C=CCN(c1cc(OC)c(NC(C)=O)cc1[N+](=O)[O-])S(C)(=O)=O | > 100 µM | > 100 µM | > 100 µM | – | > 100 µM | > 100 µM | > 100 µM | > 100 µM | > 100 µM | > 100 µM | > 100 µM | > 100 µM | > 100 µM | > 100 µM | > 100 µM | > 100 µM | > 100 µM |
| O=C(Nc1ccccc1)c1cc(S(=O)(=O)Nc2n[nH]c(=O)n2-c2ccccc2)c(S)cc1Cl | > 100 µM | > 100 µM | > 100 µM | > 100 µM | > 100 µM | > 100 µM | > 100 µM | > 100 µM | > 100 µM | – | > 100 µM | > 100 µM | > 100 µM | – | > 100 µM | > 100 µM | > 100 µM |
| Cc1ccc(CC2(C(=O)O)Cc3ccc(C)cc3C2)cc1 (centres undefined) | > 100 µM | > 100 µM | > 100 µM | > 100 µM | – | > 100 µM | > 100 µM | > 100 µM | > 100 µM | > 100 µM | > 100 µM | > 100 µM | > 100 µM | > 100 µM | > 100 µM | > 100 µM | > 100 µM |
| N#CC12C(=O)NC(=O)C1(C#N)C1C=CC2CC1 (centres undefined) | > 100 µM | > 100 µM | > 100 µM | > 100 µM | > 100 µM | – | > 100 µM | > 100 µM | > 100 µM | > 100 µM | > 100 µM | > 100 µM | > 100 µM | > 100 µM | > 100 µM | > 100 µM | > 100 µM |
| Cc1c(C)c2ccc(OCC(O)COC(C)C)c(C)c2oc1=O (centres undefined) | > 100 µM | 87.4 µM | 33 µM | > 100 µM | – | 71.4 µM | 42 µM | > 100 µM | 33.8 µM | > 100 µM | 42.2 µM | > 100 µM | > 100 µM | 62.4 µM | > 100 µM | > 100 µM | > 100 µM |
